The subject of data set [1] is deoxyribose. Description: TBARS assay, chelants during ultrasound exposure, ferrous iron (Example 1). Type of data set: biochemical. As to conditions: 0.025 mM ferrous iron, 0.03-0.04 mM chelant, 0.01% hydrogen peroxide, pH 7.5, 30 W 2 MHz 10 min. As for the experimental part:
(§1) The following example uses the thiobarbituric acid-reactive substances (TBARS) assay to identify chelants that enhance radical production during ultrasound exposure. All solutions were prepared in pH 7.5 phosphate buffer containing approximately 2 mM deoxyribose, 0.01% hydrogen peroxide, 0.025 mM ferrous iron, and 0.03-0.04 mM chelant. Solutions were sonicated at 30 W, 2 MHz, 32-34 degrees Celsius for ten minutes using a PZT-8 1.8 cm diameter custom transducer. The sonicated solution was placed on an orbit shaker rotating at 25 RPM to ensure even sonication of the solution while the transducer was held stationary. Control solutions were placed in a controlled temperature bath at 32-34 degrees Celsius without sonication. After 10 minutes of treatment, 1 mL test solution was placed in a test tube followed by 2 mL of 1% 2-thiobarbituric acid and 2 mL of 2.8% trichloroacetic acid. The test tube was sealed and heated to 90 degrees Celsius for 30 minutes and allowed to cool to room temperature for 20 minutes. The absorbance at 532 nm was measured. The enhanced radical production during ultrasound exposure is determined by comparing the amount of deoxyribose degradation that occurs in the sonicated solution versus the control solution using the following equation: [formula]

Data set [2] deals with deoxyribose. The data set is described as follows: TBARS assay, chelants during ultrasound exposure, ferric iron (Example 2). Format: biochemical. As to conditions: 0.02-0.03 mM ferric iron, 0.04-0.05 mM chelant, 0.01% hydrogen peroxide, pH 7.5, 30 W 2 MHz 10 min. As for the experimental part:
as §1, with “0.02-0.03” for “0.025”, “ferric” for “ferrous”, “0.04-0.05” for “0.03-0.04”, “was” for “is”

The subject of data set [3] is deoxyribose. Description: TBARS assay, additives in solutions containing iron or iron plus a chelant, ultrasound (Example 5). Particulars: 0.08-0.1 mM ferric iron; EDTA 0.15 mM; 30 W 2 MHz 10 min. Format: biochemical.
Method: The following example uses the thiobarbituric acid-reactive substances (TBARS) assay to identify compounds that enhance radical production during ultrasound exposure of solutions containing iron or iron plus a chelant. All solutions were prepared in pH 7.5 phosphate buffer containing approximately 2 mM deoxyribose, 0.01% hydrogen peroxide, 0.08-0.1 mM ferric iron, and the additives indicated in the table below. Solutions were sonicated at 30 W, 2 MHz, 32-34 degrees Celsius for ten minutes using a PZT-8 1.8 cm diameter custom transducer. The sonicated solution was placed on an orbit shaker rotating at 25 RPM to ensure even sonication of the solution while the transducer was held stationary. Control solutions were placed in a controlled temperature bath at 32-34 degrees Celsius without sonication. […] The test tube was sealed and heated to 90 degrees Celsius for 30 minutes and allowed to cool to room temperature for 20 minutes. The absorbance at 532 nm was measured. The enhanced radical production during ultrasound exposure was determined by comparing the amount of deoxyribose degradation that occurs in the sonicated solution versus the control solution using the following equation: [formula]
The conditions of data set [4]: on chelation of iron; cited from earlier work.

For the compound `O=C(O)CN(CCN(CC(=O)O)CC(=O)O)CC(=O)O` [Ethylenediaminetetraacetic acid], the “% Ultrasound Mediated Activity vs Control” value in data set [1] worked out at 64%; in data set [2], 575%; in data set [3], 277%. The “lowering of the redox potential of Fe(III)/Fe(II)” value in data set [4] is given as 0.65 V.

The values are drawn from patent publication US20030082101A1, “Accelerators for increasing the rate of formation of free radicals and reactive oxygen species” (Cavalier Discovery, priority 2001, published 2003).
